These results are taken from patent US8912338B2, “Pesticidal compositions” (Dow AgroSciences LLC, priority 2010, dated 2014).

Broadly, the melting point is the temperature of the solid-liquid transition.

The structures appear in SMILES notation.

For data set [1], the system named is Cotton Aphid (Aphis gossypii). As to the kind of experiment: Insecticidal test for cotton aphid in a foliar spray assay. The class given is in vivo. To be noted: 72 h, 200 ppm foliar spray on squash or cotton seedlings, live aphids counted after three days, Abbott's corrected % control, read-out: APHIGO % Ctrl @ 200 ppm. The method, then: Squash or cotton seedlings with fully expanded cotyledon leaves were trimmed to one cotyledon per plant and infested with wingless adult and nymph stage cotton aphid (APHIGO) one day prior to chemical application. Each plant was examined before chemical application to ensure uniform infestation (ca. 30-70 aphids per plant). Compounds (2 mg) were dissolved in 2 mL of acetone/methanol (1:1) solvent, forming stock solutions of 1000 ppm. The stock solutions were diluted 5× with 0.025% Tween 20 in H2O to obtain a solution at 200 ppm. A hand-held Devilbiss aspirator type sprayer was used to apply the spray solutions until runoff to both sides of the squash cotyledon leaves. Four plants (4 replications) were used for each concentration of each compound. Reference plants (solvent check) were sprayed with the diluent only. Treated plants were held in a holding room for three days at approximately 25° C. and 40% RH before the number of live cotton aphids on each plant was recorded. Insecticidal activity data presented in Table 3 were generated by using Abbott's correction formula: Corrected%Control=100*(X−Y)/X • where X=No. of live aphids on solvent check plants • Y=No. of live aphids on treated plants

For data set [2], the system named is Green Peach Aphid (Myzus persicae). Kind of data set: Insecticidal test for green peach aphid in foliar spray assay. The class given is in vivo. To be noted: 72 h, 200 ppm foliar spray on cabbage seedlings, live aphids counted after three days, Abbott's corrected % control, read-out: MYZUPE % Ctrl @ 200 ppm. On the procedure: Certain molecules disclosed in this document were tested against MYZUPE using procedures described in the following example. In the reporting of the results, the “MYZUPE, APHIGO and BEMITA Rating Table” was used (See Table Section).
Cabbage seedlings grown in 3-inch pots, with 2-3 small (3-5 cm) true leaves, were used as test substrate. The seedlings were infested with 20-50 green peach aphids (wingless adult and nymph stage) one day prior to chemical application. Four pots with individual seedlings were used for each treatment. Compounds (2 mg) were dissolved in 2 mL of acetone/methanol (1:1) solvent, forming stock solutions of 1000 ppm. The stock solutions were diluted 5× with 0.025% Tween 20 in H2O to obtain the test solution at 200 ppm. A hand-held Devilbiss sprayer was used for spraying a solution to both sides of cabbage leaves until runoff. Reference plants (solvent check) were sprayed with the diluent only. Treated plants were held in a holding room for three days at approximately 25° C. and 40% relative humidity (RH) prior to grading. Evaluation was conducted by counting the number of live aphids per plant under a microscope. Insecticidal activity data presented in Table 3 were generated by using Abbott's correction formula: Corrected%Control=100*(X−Y)/X • where X=No. of live aphids on solvent check plants • Y=No. of live aphids on treated plants

The test system of data set [3] is Sweetpotato Whitefly (Bemisia tabaci). Kind of data set: Insecticidal test for sweetpotato whitefly in foliar spray assay. The format is in vivo. The conditions noted are these: 200 ppm foliar spray on cotton plants infested with eggs, live nymphs counted after 8-9 days, Abbott's corrected % control, read-out: BEMITA % Ctrl @ 200 ppm. On the procedure:
Cotton plants were used as test substrate and were grown in 3-inch pots and pruned until only 1 small (3-5 cm) true leaf remained. The plants were then placed in a room with whitefly ([…]) adults and allowed to be infested with eggs. After a 2-3 day egg-laying period, plants were taken from the adult whitefly room and the adults were removed from the leaves using compressed air delivered through a hand-held Devilbiss sprayer (23 psi). Plants infested with eggs (100-300 eggs per plant) were placed in a controlled-environment room for 5-6 days at 82° F. and 50% RH until approximately 50% egg hatch. Four cotton plants (4 replicates) were used for each treatment. Compounds (2 mg) were dissolved in 1 mL of acetone solvent, forming stock solutions of 2000 ppm. The stock solutions were diluted 10× with 0.025% Tween 20 in H2O to obtain the test solution of 200 ppm. A hand-held Devilbiss sprayer was used for spraying a solution to both sides of cotton leaf until runoff. Reference plants (solvent check) were sprayed with the diluent only. Treated plants were held in a holding room for 8-9 days at approximately 82° F. and 50% RH prior to grading. Evaluation was conducted by counting the number of live nymphs per plant under a microscope. Insecticidal activity data presented in Table 3 were generated by using Abbott's correction formula: Corrected%Control=100*(X-Y)/X • where X=No. of live nymphs on solvent check plants • Y=No. of live nymphs on treated plants […]

On to `CSCC(Cc1ccccc1)C(=O)N(C)c1nnc(-c2cccnc2)s1` (stereo not shown) [Compound 57], for which the inhibition at 200 ppm in data set [1] and in data set [2] was 0 to 80% in each case.

Regarding `CN(C(=O)CCNC(=O)OCc1ccccc1)c1nnc(-c2cccnc2)s1` [Compound 30], the inhibition at 200 ppm in data set [1] was 0 to 80%; in data set [2] it was below 0%.

Consider `CSCC(C)(C)C(=O)Nc1nnc(-c2cccnc2)s1` [Compound 35], for which the melting point lay within 182 to 188 °C. The inhibition at 200 ppm in data set [1] lay in the range of 80 to 100%. Besides, the inhibition at 200 ppm in data set [2] was in the range of 0 to 80%.

On to `CSCCC(=O)N(c1ccccc1)c1nnc(-c2cccnc2)s1` [Compound 58], for which the melting point lay within 117 to 120 °C. In data set [1], the inhibition at 200 ppm was below 0%.

Consider `CN(CCC(=O)N(C)c1nnc(-c2cccnc2)s1)C(=O)OCc1ccccc1` [Compound 31], for which the inhibition at 200 ppm in data set [1] and in data set [2] was below 0% each time.

`CSCCC(=O)N(CC1CC1)c1nnc(-c2cccnc2)s1` [Compound 98]: the inhibition at 200 ppm is 80 to 100% in data set [2] and below 0% in data set [3].

Consider `CN(C(=O)CCSc1ccccc1)c1nnc(-c2cccnc2)s1` [Compound 10], for which the inhibition at 200 ppm is 0 to 80% in data set [1] and 80 to 100% in data set [2].

Turning to `CS/C=C/C(=O)N(C)c1nnc(-c2cccnc2)s1` [Compound 21, (E)-N-methyl-3-(methylthio)-N-(5-(pyridin-3-yl)-1,3,4-thiadiazol-2-yl)acrylamide], the inhibition at 200 ppm in data set [1] is 0 to 80%; in data set [2], 80 to 100%.

In the case of `CSCCC(=O)N(C)c1nnc(-c2ccncc2)s1` [Compound 96], the melting point was 152 to 154 °C. Also, the inhibition at 200 ppm in data set [1] was 0 to 80%.

Consider `CN(C(=O)C(C)(C)CO[Si](C)(C)C(C)(C)C)c1nnc(-c2cncc(F)c2)s1`, for which the melting point was in the range of 102 to 105 °C.

Turning to `COC(=O)CCC(=O)N(c1ccccc1)c1nnc(-c2cccnc2)s1` [Compound 59], the melting point lay in the range of 152 to 155 °C. The inhibition at 200 ppm in data set [1] lay in the range of 0 to 80%. Further, the inhibition at 200 ppm in data set [2] was below 0%.

On to `CC(C)(CS(C)(=O)=O)C(=O)Nc1nnc(-c2cccnc2)s1` [Compound 36], for which the inhibition at 200 ppm was 80 to 100% in data set [1] and 0 to 80% in data set [2].

Regarding `CCOC(=O)N(C)c1nnc(-c2cncc(F)c2)s1` [Compound 87], the inhibition at 200 ppm in data set [3] was in the range of 80 to 100%.

On to `CSC(=O)N(C)c1nnc(-c2cccnc2)s1` [Compound 55, S-methyl methyl(5-(pyridin-3-yl)-1,3,4-thiadiazol-2-yl)carbamothioate], for which the melting point is 192 to 194 °C. In data set [1], the inhibition at 200 ppm fell in the range of 0 to 80%. Also, the inhibition at 200 ppm in data set [2] is below 0%.

For `COCCOC(=O)N(C)c1nnc(-c2cccnc2)s1` [Compound 16], the results for the inhibition at 200 ppm in data set [1] and in data set [2] were 80 to 100% and 0 to 80%, respectively.

`CN(C(=O)CCN)c1nnc(-c2cccnc2)s1` [Compound 41, 3-amino-N-methyl-N-(5-(pyridin-3-yl)-1,3,4-thiadiazol-2-yl)propanamide] returned a melting point of 110 to 112 °C. Besides, in data set [1], the inhibition at 200 ppm is 80 to 100%. The inhibition at 200 ppm in data set [2] was in the range of 0 to 80%.

`COC(=O)CCC(=O)N(C)c1nnc(-c2ccncc2)s1` [Compound 97]: the melting point fell in the range of 175 to 177 °C. Besides, in data set [1], the inhibition at 200 ppm is 0 to 80%. For the same compound, in data set [2], the inhibition at 200 ppm was below 0%.

`CC(=O)SCCC(=O)N(C)c1nnc(-c2cccnc2)s1` [Compound 26, S-3-(methyl(5-(pyridin-3-yl)-1,3,4-thiadiazol-2-yl)-amino)-3-oxopropyl ethanethioate] gave a melting point of 133 to 135 °C. Further, the inhibition at 200 ppm in data set [1] is 0 to 80%. Besides, the inhibition at 200 ppm in data set [2] lay in the range of 0 to 80%.

On to `CN(C(=O)CCSC(F)(F)F)c1nnc(-c2cccnc2)s1` [Compound 27, N-methyl-N-(5-(pyridin-3-yl)-1,3,4-thiadiazol-2-yl)-3-(trifluoromethylthio)propanamide], for which the inhibition at 200 ppm was 80 to 100% in data set [1] and 0 to 80% in data set [2].

Regarding `CN(C(=O)CCNC#N)c1nnc(-c2cccnc2)s1` [Compound 23, 3-(cyanoamino)-N-methyl-N-[5-(3-pyridyl)-1,3,4-thiadiazol-2-yl]propanamide], the melting point was in the range of 155 to 159 °C. For the same compound, in data set [1], the inhibition at 200 ppm lay in the range of 80 to 100%. Besides, the inhibition at 200 ppm in data set [2] lay in the range of 80 to 100%.

Consider `CSCOC(=O)N(C)c1nnc(-c2cccnc2)s1` [Compound 54, methylthiomethyl methyl(5-(pyridin-3-yl)-1,3,4-thiadiazol-2-yl)carbamate], for which the inhibition at 200 ppm in data set [1] was 0 to 80%; in data set [2], below 0%.

Take `CCOC(=O)Nc1nnc(-c2cccnc2)s1` [Compound 14]: the melting point is 127 to 132 °C. In addition, in data set [1], the inhibition at 200 ppm fell in the range of 0 to 80%. For the same compound, the inhibition at 200 ppm in data set [2] was below 0%.

`CN(C(=O)CCSC(c1ccccc1)(c1ccccc1)c1ccccc1)c1nnc(-c2cccnc2)s1` [Compound 22, N-methyl-N-(5-(pyridin-3-yl)-1,3,4-thiadiazol-2-yl)-3-(tritylthio)propanamide] showed a melting point of 60 to 75 °C. Also, in data set [1], the inhibition at 200 ppm was below 0%. The inhibition at 200 ppm in data set [2] is 0 to 80%.

`CN(C(=O)CCS(=O)(=O)Cc1ccccc1)c1nnc(-c2cccnc2)s1` [Compound 40] showed a melting point of 198 to 201 °C. Besides, the inhibition at 200 ppm in data set [1] is below 0%. Besides, the inhibition at 200 ppm in data set [2] was below 0%.

As for `CSCCNC(=S)N(C)c1nnc(-c2cncc(F)c2)s1` [Compound 86, 1-[5-(5-fluoro-pyridin-3-yl)-[1,3,4]thiadiazol-2-yl]-1-methyl-3-(2-methylsulfanyl-ethyl)-thiourea], the inhibition at 200 ppm in data set [2] and in data set [3] was 80 to 100% each time.

`CN(C(=O)CCS)c1nnc(-c2cccnc2)s1` [Compound 25, 3-mercapto-N-methyl-N-(5-(pyridin-3-yl)-1,3,4-thiadiazol-2-yl)propanamide] yielded a melting point of 149 to 151 °C. Besides, in data set [1], the inhibition at 200 ppm was 80 to 100%. Besides, the inhibition at 200 ppm in data set [2] fell in the range of 80 to 100%.

As to `CN(C(=O)OCCS(C)(=O)=O)c1nnc(-c2cccnc2)s1` [Compound 52], the melting point was 198 to 200 °C. Moreover, in data set [1], the inhibition at 200 ppm lay in the range of 0 to 80%. Moreover, in data set [2], the inhibition at 200 ppm is 0 to 80%.

Turning to `CSCCN(C)C(=O)N(C)c1nnc(-c2cncc(F)c2)s1` [Compound 83, 1-[5-(5-fluoro-pyridin-3-yl)-[1,3,4]thiadiazol-2-yl]-1,3-dimethyl-3-(2-methylsulfanyl-ethyl)-urea], the values for the inhibition at 200 ppm in data set [2] and in data set [3] were 80 to 100% and 0 to 80%, respectively.

As for `CSCCC(=O)N(C)c1nnc(-c2cnccc2C(F)(F)F)s1` [Compound 60], the results for the inhibition at 200 ppm in data set [1] and in data set [2] were 0 to 80% and below 0%, respectively.

`CCOC(=O)N(C)c1nnc(-c2cccnc2)s1` [Compound 15]: the melting point lay in the range of 162 to 164 °C. Also, the inhibition at 200 ppm in data set [1] is 0 to 80%. For the same compound, the inhibition at 200 ppm in data set [2] was below 0%.

As for `CSCCCN(C(C)=O)c1nnc(-c2cccnc2)s1` [Compound 47], the inhibition at 200 ppm in data set [1] is 0 to 80%; in data set [2], below 0%.
